Measurements from publication PMC7463931, “Structure-Antifouling Activity Relationship and Molecular Targets of Bio-Inspired(thio)xanthones” (Biomolecules, 2020).
Read-outs that look alike come from different tables or passages of the source.

Experiments:
[1] = Toxicity (mortality, LC50) to mussel plantigrade larvae in the anti-settlement bioassay; assay type: in vivo, Mytilus galloprovincialis; settings: Mytilus galloprovincialis, in vivo, other: immersion in test media in filtered seawater; mussel plantigrade larvae; read-out: LC50 (median lethal dose)
Procedure: (§1) The 19 xanthone derivatives were screened for anti-settlement activity toward M. galloprovincialis plantigrade larvae. Samples of M. galloprovincialis juveniles were collected from mussel beds during low tides in the intertidal zone of Memória beach, Matosinhos, Portugal (41°13′59″ N; 8°43′28″ W). Mussel plantigrade larvae (0.5–2 mm) were sorted in a binocular magnifier (Olympus SZX2-ILLT, Tokyo, Japan) and kept in filtered seawater until bioassays preparation. […] Five competent larvae were included per well and four well replicates per condition. Stock solutions (50 mM) in DMSO were used to prepare test media in filtered seawater (0.1%). Negative and positive controls were used, namely DMSO (0.1%) and CuSO4 (5 μM) as an efficient antifouling agent. After exposure, the anti-settlement bioactivity was determined by the observation of efficiently attached plantigrade larvae considering the existence/absence of produced byssal threads for each test condition. Compounds producing more than 50% of settlement inhibition at 50 µM were selected for antifouling effectiveness (EC50) and toxicity (LC50 and therapeutic index) bioassays, according to previously validated experimental conditions.
(§2) Therapeutic ratios (LC50/EC50) were used to evaluate the effectiveness versus toxicity of bioactive compounds. For the differential proteome analysis, non-parametric Kruskall-Wallis (KW) and Mann Whitney (MW) tests were utilized to report protein abundance differences between treatments in MultiExperiment Viewer (MeV) version 4.9 (The Institute for Genomic Research (TIGR), La Jolla, CA, USA) at a confidence level of 95% [34]. The hierarchical clustering of proteins was made using Pearson correlation and average linkage method.

[2] = system: Mytilus galloprovincialis plantigrade larvae; assay: M. galloprovincialis larvae anti-settlement bioassay; assay type: in vivo; settings: for EC50: dose-response, read-out: EC50 (concentration that inhibited 50% of larval settlement); for inhibition at 50 µM: initial screening bioassay at 50 µM, 15 h
Procedure: as §1, §2

Artemia salina nauplii = assay: Brine shrimp (Artemia salina) lethality test; assay type: in vivo; settings: 25 and 50 µM, 48 h of exposure
Procedure: Ecotoxicity to non-target species was assessed using the brine shrimp (Artemia salina) lethality test standard protocol. Artemia cysts were cultivated and newly hatched nauplii I were used for the exposure to the most promising antifouling compounds at 50 and 25 µM. The bioassay was performed in 96-well microplates with eight replicates per condition and 15–20 nauplii per well. Positive (K2Cr2O7 at 13.6 µM) and negative (DMSO) controls were included. After 48 h of exposure, the percentage of nauplii mortality was determined.

[3] = system: Mytilus galloprovincialis plantigrade larvae; assay: Toxicity (mortality, LC50) to mussel plantigrade larvae in the anti-settlement bioassay; assay type: in vivo
Procedure: as §1, §2

[4] = system: Agaricus bisporus tyrosinase; assay: In vitro determination of tyrosinase inhibition activity; assay type: biochemical
Procedure: Tyrosinase inhibition assays were conducted using Agaricus bisporus tyrosinase (EC 1.14.18.1) according to Adhikari et al. with appropriate adaptations. The enzymatic reaction follows the catalytic conversion of L-Dopa to dopaquinone and the formation of dopachrome by measuring the absorbance at 475 nm. Briefly, 50 µL of tyrosinase (25 U.mL^−1) in 50 mM phosphate buffer pH 6.5, adding the defined concentration of compounds in DMSO. The enzymatic activity was initiated by L-dopa (25 mM). Kojic acid was used as positive control and DMSO as negative control.

[5] = system: Mytilus galloprovincialis plantigrade larvae; design: method as in PMID 31669574; settings: at 108 µM, same bioassay conditions; cited from earlier work
[6] = molecular target: T1, Electrophorus electric AChE Type V-S (Electrophorus electricus, UniProt O42275); assay: In vitro determination of acetylcholinesterase (AChE) inhibition activity; assay type: biochemical; settings: for AChE inhibition compared to control: 50 µM; for dose-response of AChE activity: Figure 4b
T1 construct: purchased SIGMA C2888
Procedure: AChE inhibition was evaluated as a neurotransmission biomarker for the 19 compounds using Electrophorus electric AChE Type V-S (SIGMA C2888, E.C. 3.1.1.7), according to Ellman et al. (1961) and modified by Almeida et al. (2015). Briefly, 250 μL of the reaction solution containing 30 mL of phosphate buffer, 1mL of the reagent dithiobisnitrobenzoate (DTNB) at 10 mM (acid dithiobisnitrobenzoate and sodium hydrogen carbonate in phosphate buffer), and 200 μL of […] 0.075 M was added to 50 μL of pure AChE (0.25 U.mL^−1) and each test compound at final concentration of 30 μg mL^−1 in quadruplicate. AChE activity was followed at 412 nm during 5 min at 25 °C. Negative and positive controls were included, namely ultra-pure water and eserine (20 mM), respectively, and a blank containing 50 μL of phosphate buffer.

T1 sequence (O42275 24-633): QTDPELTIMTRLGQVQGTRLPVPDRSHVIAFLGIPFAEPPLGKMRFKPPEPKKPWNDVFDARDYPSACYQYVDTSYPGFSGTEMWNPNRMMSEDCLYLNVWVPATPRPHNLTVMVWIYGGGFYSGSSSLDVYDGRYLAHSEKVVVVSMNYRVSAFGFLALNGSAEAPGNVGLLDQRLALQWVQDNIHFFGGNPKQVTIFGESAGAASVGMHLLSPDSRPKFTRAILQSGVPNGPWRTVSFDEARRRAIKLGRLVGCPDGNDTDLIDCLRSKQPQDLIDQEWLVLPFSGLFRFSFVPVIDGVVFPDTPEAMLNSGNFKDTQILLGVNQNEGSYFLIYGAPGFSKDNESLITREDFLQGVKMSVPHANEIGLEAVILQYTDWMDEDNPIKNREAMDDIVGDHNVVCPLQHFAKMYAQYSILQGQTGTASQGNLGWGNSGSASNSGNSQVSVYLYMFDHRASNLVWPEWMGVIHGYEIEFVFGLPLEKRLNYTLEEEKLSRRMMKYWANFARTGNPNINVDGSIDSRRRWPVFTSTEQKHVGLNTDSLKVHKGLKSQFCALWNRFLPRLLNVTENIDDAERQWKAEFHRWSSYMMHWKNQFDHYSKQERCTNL

Row | Structure (SMILES) | LC50 at 15 h [1] [µM] | EC50 ([2]; Probit regression, 95% CI) [µM] | EC50 [2] [µg/mL] | inhibition at 50 µM [2] [%] | Artemia salina mortality (Artemia salina nauplii) [%] | mortality of mussel plantigrade larvae ([3]; at 100 µM) [%] | induction of tyrosinase activity ([4]; 25 μM) [%] | induction of tyrosinase activity ([4]; 200 μM) [%] | mortality of mussel plantigrade larvae [5] [%] | inhibition of tyrosinase activity ([4]; 50 µM) [%] | AChE inhibition compared to control [6] | dose-response of AChE activity [6] | mortality of mussel plantigrade larvae ([3]; at 500 µM) [%]
1 | CCCOc1ccc(NCCc2ccc3c(c2)OCO3)c2c(=O)c3ccccc3sc12 [Compound 15, 1-[11]-4-propoxy-9H-thioxanthen-9-one] | > 500 | 28.6 | 12.4 | 71.2 ± 10.9 | > 10 |  |  |  |  |  |  |  | 
2 | CC1(C)CCc2cc3c(=O)c4ccccc4oc3c(O)c2O1 [Compound 10, 4-dihydro-12-hydroxy-2,2-dimethyl-2H,6H-pyrano [3,2-b]xanthone] | > 500 | 4.6 | 1.36 | 75 ± 9.6 | < 10 | 15 |  |  |  |  |  |  | 
3 | O=c1c2ccccc2oc2c(O)c(O)ccc12 [Compound 7, 3,4-dihydroxy-] | > 500 | 11.5 | 2.63 | 65 ± 17.1 | < 10 |  | 11.7 | 62.5 |  |  |  |  | 
4 | N#Cc1c(-c2ccc(Cl)cc2)[nH]c(C(F)(F)F)c1Br [ECONEA] |  |  |  |  |  |  |  |  | 50 |  |  |  | 
5 | O=c1c2ccc(O)cc2oc2cc(O)ccc12 [Compound 8, 3,6-dihydroxy-] |  |  |  |  |  |  |  |  |  | 34 |  |  | 
6 | O=c1c2ccccc2oc2ccc(O)c(O)c12 [Compound 5, 1,2-dihydroxy-] | > 500 | 15.5 | 3.52 | 70 ± 12.9 | > 10 |  |  |  |  |  | showed AChE inhibition | concentration-dependent modulation of AChE activity | 
7 | CCCOc1ccc(N2CCCCC2)c2c(=O)c3ccccc3sc12 [Compound 17, 1-(piperidin-1-yl)-4-propoxy-9H-thioxanthen-9-one] | > 500 | 3.53 | 1.25 | 71.7 ± 5 | > 10 |  |  |  |  |  |  |  | 17
8 | O=c1c2ccccc2oc2c(O)cccc12 [Compound 4, 4-hydroxy-] | > 500 | 21.5 | 4.55 | 70 ± 12.9 | > 10 |  |  |  |  |  | showed AChE inhibition | concentration-dependent modulation of AChE activity | 
